From article PMC9039622 (Frontiers in Pharmacology, 2022)

Key:
[1] = In vitro incubation of prodrugs with LPL supplemented rat plasma; type: in vitro ADME, Sprague Dawley rat; conditions: over 3 h
Experimental: […] is tethered to the luminal surface of vascular endothelial cells under physiological conditions ([Bensadoun 1991]). In the current in vitro studies, rat plasma was therefore supplemented with LPL to better reflect the in vivo situation. To start hydrolysis, 10 µl of LPL solution (10,000 IU/ml) was added to a mixture of 10 µl of prodrug solution (0.1 mg/ml dissolved in acetonitrile) and 500 µl of blank Sprague Dawley rat plasma. The solution was incubated at 37°C. Samples (20 µl) of the incubation solution were taken at 0, 5, 15, 30, 60, 90, 120 and 180 min post incubation and added to 180 µl of ACN to stop lipolysis. The mixture was vortexed and centrifuged at 4,500 g for 5 min to precipitate proteins prior to analysis.
(§1) Absolute quantification of the hydrolysis products, i.e., MG derivatives and BUP-linker-COOH forms (“acid” forms) was not attempted due to lack of authentic standards. Instead, the profiles for these species were plotted based on the peak areas obtained from HPLC-MS. […] To illustrate changes to the BUP-linker-acid forms, the relative changes were plotted as the peak areas on the right-hand Y axis in Figures 3 and 5.

[2] = In vitro digestion of prodrugs by porcine pancreatin in simulated intestinal fluid (SIF); type: in vitro ADME; conditions: for MG intermediate detected in SIF: after 30 min incubation; for half-life at 1.96 µg/ml: pig, pH 6.5, SIF with porcine pancreatin, read-out: apparent half-life of MG intermediate in SIF
Experimental: Briefly, the lipase solution was prepared by dispersion of porcine pancreatin (10,000 IU/ml) in a lipolysis buffer (pH 6.5) containing tris-maleate (2 mM), CaCl2 (1.4 mM) and NaCl (150 mM), followed by centrifugation at 2,000 g for 15 min at 5°C to provide the lipase solution as the supernatant. To start the hydrolysis, 100 µl of the lipase solution was added to a mixture of 20 µl of prodrug solution (0.1 mg/ml dissolved in acetonitrile) and 900 µl of simulated intestinal micellar solution (3 mM of sodium taurodeoxycholate and 0.75 mM of phosphatidylcholine dispersed in lipolysis buffer). The solution was incubated at 37°C. Samples (20 µl) of the incubation solution were taken at 0, 5, 10, 15, 30, 60, 90, 120 and 180 min post incubation and added to 180 µl of acetonitrile to stop lipolysis. The mixture was vortexed and centrifuged at 4,500 g for 5 min to precipitate proteins prior to analysis. The supernatant was analysed by HPLC-MS/MS for the potential products (Figure 1) of prodrug hydrolysis as described in the Supplementary Material.
as §1

[3] = parameters: method as in earlier work; conditions: ref Tauber, Schroder, Dusterberg and Matthes 1986b; Shackleford et al., 2003; cited from earlier work

SMILES	BUP-linker-acid form detected in plasma [1]	MG intermediate detected in SIF [2]	half-life at 1.96 µg/ml [2] [min]	further results
CO[C@]12CC[C@@]3(C[C@@H]1[C@](C)(O)C(C)(C)C)[C@H]1Cc4ccc(OC(=O)CCCCOC(=O)CCC(=O)OC(CO)CO)c5c4[C@@]3(CCN1CC1CC1)[C@H]2O5 [BUP-CE-C4-MG]	transiently detected	only trace quantities	–	–
CCCCCCCCCCC(=O)O[C@H]1CC[C@H]2[C@@H]3CCC4=CC(=O)CC[C@]4(C)[C@H]3CC[C@]12C [testosterone undecanoate]	–	–	–	oral bioavailability for TST [3]: ~5%
CO[C@]12CC[C@@]3(C[C@@H]1[C@](C)(O)C(C)(C)C)[C@H]1Cc4ccc(OC(=O)CCC(=O)OC(CO)CO)c5c4[C@@]3(CCN1CC1CC1)[C@H]2O5 [BUP-C4-MG]	no BUP-linker-acid forms were detected	only trace quantities	< 10	–
CO[C@]12CC[C@@]3(C[C@@H]1[C@](C)(O)C(C)(C)C)[C@H]1Cc4ccc(OC(=O)CC(C)(C)c5c(C)cc(C)cc5OC(=O)CCC(=O)OC(CO)CO)c5c4[C@@]3(CCN1CC1CC1)[C@H]2O5 [BUP-TML-C4-MG]	no BUP-linker-acid forms were detected	–	–	MG intermediate remaining in simulated GI fluids ([2]; after 2 h): more than half
CO[C@]12CC[C@@]3(C[C@@H]1[C@](C)(O)C(C)(C)C)[C@H]1Cc4ccc(OC(=O)CC(C)CC(=O)OC(CO)CO)c5c4[C@@]3(CCN1CC1CC1)[C@H]2O5 (stereo partly drawn) [BUP-C5bMe-MG]	no BUP-linker-acid forms were detected	–	> 60	–
CO[C@]12CC[C@@]3(C[C@@H]1[C@](C)(O)C(C)(C)C)[C@H]1Cc4ccc(OC(=O)CC(C)(C)c5c(C)cc(C)cc5OC(=O)CC(C)CC(=O)OC(CO)CO)c5c4[C@@]3(CCN1CC1CC1)[C@H]2O5 (stereo partly drawn) [BUP-TML-C5bMe-MG]	no BUP-linker-acid forms were detected	–	–	MG intermediate remaining in SIF ([2]; at the end of the 3 h incubation, relative peak area): more than 80%
